Measurements from patent US4032635A, “Pharmaceutical method for the therapy of immune diseases” (Zaidan Hojin Biseibutsu Kagaku Kenkyu Kai, priority 1975, dated 1977).
Where two headings read alike, the source gives them in different places. Where a SMILES comes first, the peptide text is derived from it. [ ]: non-standard residue; d: D form. The star is where a group is joined. Sta = CC(C)C[C@H](N)[C@@H](O)CC(=O)O; Isovaleryl = CC(C)CC(=O)*

Columns and labels:
[1] = system: primary antibody formation to sheep red blood cells (SRBC), spleen cells; assay: Suppression of primary antibody formation (plaque forming cells, Jerne's method); assay type: in vivo, mice (ddY-strain); settings: for inhibition in vivo at 1 mg: Erythrocyte, ip, 96 h, read-out: Suppression, Plaque Forming Cells (suppression rate of primary antibody formation)
Protocol: 10^8 sheep red blood cells (SRBC) were injected intravenously into ddY-strain mice to immunize the animals, when the compounds of Formula (I) were administered intraperitoneally.
Each compound was administered intraperitoneally in the dosage of 1 mg./mouse.

[2] = system: Delayed-Type Hypersensitivity (DTH) to sheep red blood cells (SRBC); assay: Suppression of delayed-type hypersensitivity (SRBC footpad swelling); assay type: in vivo, mouse; settings: for inhibition in vivo at 1 mg: Erythrocyte; for suppression of DTH reaction: anti-inflammatory drugs and protease-inhibitors, 1 mg./mouse
Protocol: The compounds of Formula (I) show suppression of various delayed-type hypersensitivity. In reference to the method by Lagrange [J. Exp. Med. 139, 528 (1974)], 10^8 sheep red blood cells (SRBC) without adjuvant were subcutaneously injected into the mouse hind footpad to immunize the animal. Four days later the animals were challenged by subcutaneous injection of 10^8 SRBC into another footpad. DTH response was measured as the increase in the thickness of footpad 24 hours after the injection of SRBC.
Varying doses of Compound-1 were administered orally or intraperitoneally either at the time of immunization (day 0) or challenge (day 4).
In FIG. 1 the ordinate indicates the swelling (× 0.1 mm.) of mice footpads on day 5 and the abscissa indicates the dose of Compound-1 per mouse administered by the oral (right) and intraperitoneal (left) routes. Solid line curve indicates the relationship when Compound-1 was administered on day 0 and the dotted line curve indicates the relationship when given on day 4.
The compounds were administered intraperitoneally in a dose 1 mg./mouse at the time of immunization (day 0) or challenge (day 4). Table 1 includes the results of humoral antibody response described later.

[3] = Acute toxicity, intraperitoneal; settings: mouse, in vivo, ip, mice, read-out: LD50 (approximate)
Protocol: Acute toxicological studies were carried out on mice by intraperitoneal administration of the compounds of Formula (I). The approximate LD50 values for representative compounds are given as follows: […]

[4] = system: passive cutaneous anaphylaxis (PCA); assay: Suppression of passive cutaneous anaphylaxis (PCA); assay type: in vivo, guinea pigs; settings: oral 100 mg./kg.; dilution giving a 10 mm. diameter blue zone; control 1060
Protocol: The compounds of Formula (I) are active in suppressing passive cutaneous anaphylaxis (PCA) in guinea pigs. Guinea pigs received intradarmally serial dilutions of antiserum (0.1 ml.), which was obtained from guinea pigs immunized with a mixture of egg albumin and Freund's complete adjuvant. At the time of sensitization with antiserum, the compound of Formula (I) was administered either orally (100 mg./kg.) or intraperitoneally (50 mg./kg.).
Four hours later the animals were challenged by intravenous injection of a mixture of 5 mg. egg albumin and Evans blue dye. The reaction was measured 30 minutes later by the blue zone which emerged at the point of antiserum injection.

[5] = system: carrageenin-induced edema; settings: 1 mg./mouse; cited from earlier work
[6] = 96 h, 1 mg./mouse i.p., at challenge (day 4), read-out: Suppression, Delayed-Type Hypersensitivity, Administered at Induction (suppression rate)
[7] = ip, 0 h, 1 mg./mouse i.p., at immunization (day 0), read-out: Suppression, Delayed-Type Hypersensitivity, Administered at Immunization (suppression rate)

Structure (SMILES)	inhibition in vivo at 1 mg ([1]; 1 mg./mouse i.p.)	inhibition in vivo at 1 mg [2, 6]	inhibition in vivo at 1 mg [2, 7]	LD50 [3]	also measured
COc1c(Cl)cc(NC(=O)c2ccccc2O)cc1Cl [Compound 3]	50 to 75%	> 75%	0 to 25%		
CCC(=O)Oc1ccccc1C(=O)Nc1cc(Cl)c(OC(=O)CC)c(Cl)c1 [Compound 5]	50 to 75%	> 75%	0 to 25%		
O=C(Oc1ccccc1C(=O)Nc1cc(Cl)c(OC(=O)c2ccccc2)c(Cl)c1)c1ccccc1 [Compound 6]	> 75%	> 75%	0 to 25%	2800 mg/kg	
CC(=O)Oc1ccccc1C(=O)Nc1cc(Cl)cc(Cl)c1OC(C)=O [Compound 7]	50 to 75%	> 75%	0 to 25%	> 3000 mg/kg	
CC(=O)Oc1ccccc1C(=O)Nc1cc(Cl)c(O)c(Cl)c1 [Compound 8]	25 to 50%	0 to 25%	0 to 25%		
O=C(O)COc1c(Cl)cc(NC(=O)c2ccccc2O)cc1Cl [Compound 9]	0 to 25%	> 75%	0 to 25%		
O=C(Nc1cc(Cl)c(O)c(Cl)c1)c1ccc(F)cc1O [Compound 10]	25 to 50%	> 75%	0 to 25%		
Cc1ccc(C(=O)Nc2cc(Cl)c(O)c(Cl)c2)c(O)c1 [Compound 11]	25 to 50%	0 to 25%	> 75%		
O=C(Nc1cc(Br)cc(Br)c1O)c1ccccc1O [Compound 13]	0 to 25%	50 to 75%	50 to 75%	1280 mg/kg	
CCOc1c(Br)cc(NC(=O)c2ccccc2O)cc1Br [Compound 14]	0 to 25%	> 75%	50 to 75%		
CCC(=O)Oc1ccccc1C(=O)Nc1cc(Br)cc(Br)c1OC(=O)CC [Compound 15]	0 to 25%	50 to 75%	50 to 75%	2200 mg/kg	
Cc1ccc(C(=O)Nc2cc(Br)c(O)c(Br)c2)c(O)c1 [Compound 16]	0 to 25%	> 75%	50 to 75%		
O=C(Nc1cc(F)c(O)c(Cl)c1)c1ccccc1O [Compound 17]	> 75%	> 75%	0 to 25%		
COc1c(F)cc(NC(=O)c2ccc(Cl)cc2O)cc1Cl [Compound 18]	25 to 50%	> 75%	0 to 25%		
Cc1cc(Cl)cc(NC(=O)c2ccccc2O)c1O [Compound 19]	25 to 50%	25 to 50%	0 to 25%	1800 mg/kg	
Cc1cc(Cl)c(O)c(NC(=O)c2ccccc2O)c1 [Compound 20]	50 to 75%	> 75%	0 to 25%		
O=C(Nc1cc([N+](=O)[O-])cc([N+](=O)[O-])c1O)c1ccccc1O [Compound 21]					inhibition in vivo at 1 mg ([1]; Mus musculus): 0 to 25%; inhibition in vivo at 1 mg ([2]; Mus musculus, 96 h, read-out: Suppression, Delayed-Type Hypersensitivity, Administered at Induction (suppression rate)): > 75%; inhibition in vivo at 1 mg ([2]; Mus musculus, ip, 0 h, read-out: Suppression, Delayed-Type Hypersensitivity, Administered at Immunization (suppression rate)): 50 to 75%

Structure (SMILES)	inhibition in vivo at 1 mg ([1]; 1 mg./mouse i.p.)	inhibition in vivo at 1 mg [2, 6]	inhibition in vivo at 1 mg [2, 7]	LD50 [3]	also measured
O=C(Nc1ccc(O)c(Cl)c1)c1ccccc1O [Compound 22]	> 75%	0 to 25%	0 to 25%		
O=C(Nc1cccc(Cl)c1O)c1ccccc1O [Compound 23]	50 to 75%	0 to 25%	0 to 25%	1550 mg/kg	
CCOc1ccc(NC(=O)c2ccc(F)cc2O)cc1Cl [Compound 24]	25 to 50%	50 to 75%	0 to 25%		
CC(=O)Oc1ccccc1C(=O)Nc1cccc(Cl)c1OC(C)=O [Compound 25]	50 to 75%	25 to 50%	0 to 25%	2500 mg/kg	
O=C(Nc1ccc(O)cc1)c1ccccc1O [Compound 26]	50 to 75%	50 to 75%	0 to 25%		
COc1ccc(NC(=O)c2ccc(F)cc2O)cc1 [Compound 28]	> 75%	> 75%	0 to 25%	2800 mg/kg	
CCOc1ccc(NC(=O)c2ccc(F)cc2O)cc1 [Compound 31]	50 to 75%	> 75%	0 to 25%		
COc1ccc(NC(=O)c2ccc(C)cc2OC(C)=O)cc1 [Compound 32]					Suppression, Plaque Forming Cells (suppression rate of primary antibody formation) ([1]; 1 mg./mouse i.p.): - (0 - 25% +-); Suppression, Delayed-Type Hypersensitivity, Administered at Induction (suppression rate) ([2]; 1 mg./mouse i.p., at challenge (day 4)): + (25 - 50%+-); Suppression, Delayed-Type Hypersensitivity, Administered at Immunization (suppression rate) ([2]; 1 mg./mouse i.p., at immunization (day 0)): - (0 - 25% +-)
CC(=O)Oc1ccccc1C(=O)Nc1cc(Cl)c(OC(C)=O)c(Cl)c1 [Compound-4, 2,4'-Diacetoxy-3',5'-dichlorobenzanilide]	50 to 75%	> 75%	0 to 25%		
O=C(Nc1cc(Br)c(O)c(Br)c1)c1ccccc1O [Compound-12, 3',5'-Dibromo-2,4'-dihydroxybenzanilide]	0 to 25%	50 to 75%	> 75%	1100 mg/kg	Max. Dilution of Antiserum, Oral [4]: 548
COc1ccc(NC(=O)c2ccccc2O)cc1 [Compound-27, 2-Hydroxy-4'-methoxybenzanilide]	> 75%	> 75%	0 to 25%	> 3000 mg/kg	Max. Dilution of Antiserum, Oral [4]: 284
COc1ccc(NC(=O)c2ccc(C)cc2O)cc1 [Compound-29, 2-Hydroxy-4-methyl-4'-methoxybenzanilide]	25 to 50%	> 75%	0 to 25%	2500 mg/kg	
CC(=O)Oc1ccccc1C(=O)O [aspirin, reference compound]					suppression of carrageenin-induced edema [5]: strongly suppress carrageenin-induced edema; suppression of DTH reaction [2]: little suppression of this DTH reaction
CC(C)C[C@H](NC(=O)[C@@H](NC(=O)N[C@@H](Cc1ccccc1)C(=O)O)[C@@H]1CCN=C(N)N1)C(=O)N[C@H](C=O)Cc1ccccc1 [chymostatin, reference compound]					suppression of carrageenin-induced edema [5]: strongly suppress carrageenin-induced edema; suppression of DTH reaction [2]: little suppression of this DTH reaction
CC(=O)N[C@@H](CC(C)C)C(=O)N[C@@H](CC(C)C)C(=O)N[C@H](C=O)CCCNC(=N)N [leupeptin, reference compound]					suppression of carrageenin-induced edema [5]: strongly suppress carrageenin-induced edema; suppression of DTH reaction [2]: little suppression of this DTH reaction
CC(C)CC(=O)N[C@H](C(=O)N[C@H](C(=O)N[C@@H](CC(C)C)[C@@H](O)CC(=O)N[C@@H](C)C(=O)N[C@@H](CC(C)C)[C@@H](O)CC(=O)O)C(C)C)C(C)C [pepstatin, reference compound] (Isovaleryl-VV[Sta]A[Sta]-OH)					suppression of carrageenin-induced edema [5]: strongly suppress carrageenin-induced edema; suppression of DTH reaction [2]: little suppression of this DTH reaction
